Patent publication US9133207B2, “Tetrandrine derivatives with substituted 5-carbon, preparation method and use thereof” (Hangzhou Bensheng Pharmaceutical Co., Ltd., priority 2011, dated 2015)
≈ marks a conversion by molar mass, not a printed value.

How the values were obtained:
[1] = test system: Huh7 (human liver cancer cell); experiment: Solid tumor cell growth inhibition, MTT, 72 h (Example 7); type: cell-based; conditions: Homo sapiens; 72 h, MTT, Huh-7
Outline: (§1)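 Viability (%) relative to compound-free controls (100%) comes from MTT measurement following 72 h drug exposure at 37 °C, 5% CO2. Seeding density: 4000 cells/well, 24 h before dosing.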

[2] = test system: U87 MG (malignant glioma cell); experiment: as above; type: cell-based; conditions: Homo sapiens, U-87 MG
Outline: as §1

[3] = test system: CNE (nasopharyngeal carcinoma cell); experiment: as above; type: cell-based; conditions: Homo sapiens
Outline: as §1

[4] = test system: Hela (human cervical cancer cell); experiment: as above; type: cell-based; conditions: Homo sapiens; 72 h, MTT, Hela
Outline: as §1

[5] = test system: RKO (human colon adenocarcinoma cell); experiment: as above; type: cell-based; conditions: Homo sapiens; 72 h, MTT, RKO
Outline: as §1

[6] = test system: SK-OV-3 (ovarian cancer cell); experiment: as above; type: cell-based; conditions: Homo sapiens
Outline: as §1

[7] = test system: A549 (human lung cancer); experiment: as above; type: cell-based; conditions: Homo sapiens; 72 h, MTT, A549
Outline: as §1

[8] = test system: MGC 803 (human gastric cancer cell); experiment: as above; type: cell-based; conditions: Homo sapiens
Outline: as §1

[9] = test system: Becap37 (human breast cancer cell); experiment: as above; type: cell-based; conditions: Homo sapiens; 72 h, MTT, Becap-37
Outline: as §1

[10] = test system: RPMI8226 (multiple myeloma); experiment: Multiple myeloma cell growth inhibition, MTT, 72 h (Example 6); type: cell-based, human; conditions: Homo sapiens, RPMI-8226; 72 h, MTT, RPMI8226
Outline: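 Viability was read by MTT after 72 h of compound exposure at 37 °C, 5% CO2. Each well held 6000 RPMI8226 cells in 1640 medium containing 10% fetal bovine serum, with derivatives added at various concentrations.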

[11] = test system: MG63 (osteosarcoma); experiment: Solid tumor cell growth inhibition, MTT, 72 h (Example 7); type: cell-based, human; conditions: Homo sapiens; 72 h, MTT, MG-63
Outline: as §1

[12] = test system: Hep-2 (laryngeal carcinoma); experiment: as above; type: cell-based, human; conditions: Homo sapiens; 72 h, MTT, Hep 2
Outline: as §1

[13] = test system: CaES-17 (esophageal cancer cell); experiment: as above; type: cell-based, human; conditions: Homo sapiens, CaEs17; 72 h, MTT, CAES-17
Outline: as §1

[14] = test system: PANC-1 (pancreatic cancer); experiment: as above; type: cell-based, human; conditions: Homo sapiens; 72 h, MTT, PANC-1
Outline: as §1

[15] = test system: PC-3 (prostate cancer); experiment: as above; type: cell-based, human; conditions: Homo sapiens; 72 h, MTT, PC-3
Outline: as §1

[16] = test system: Kasumi-1 (acute myeloid leukemia M2 type, AML-M2); experiment: Leukemia cell growth inhibition, MTT, 72 h (Example 5); type: cell-based, human; conditions: Homo sapiens, Kasumi 1
Outline: (§2)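 RPMI 1640 + 10% FBS, 6000 cells/well; tetrandrine derivatives at various concentrations; 37° C, 5% CO2, 72 h; viability by MTT.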

[17] = test system: H9 (acute lymphoblastic leukemia, ALL); experiment: as above; type: cell-based, human; conditions: Homo sapiens; 72 h, MTT
Outline: as §2

[18] = test system: NB4 (acute promyelocytic leukemia, AML); experiment: as above; type: cell-based, human; conditions: Homo sapiens; 72 h, MTT
Outline: as §2

[19] = test system: K562/adr (drug-resistant, chronic myeloid leukemia, CML); experiment: as above; type: cell-based, human; conditions: Homo sapiens, K562/Adr; 72 h, MTT
Outline: as §2

[20] = test system: Jurkat (acute lymphoblastic leukemia, ALL); experiment: as above; type: cell-based, human; conditions: for IC50 / IC90: Homo sapiens, Jurkat, 72 h, MTT
Outline: as §2

For COc1ccc2cc1Oc1ccc(cc1)C[C@H]1c3cc(c(OC)cc3CCN1C)Oc1c(OC)c(OC)c(CN3CCCC(C)C3)c3c1[C@H](C2)N(C)CC3 (stereo partly drawn) [BS-TE-346], which IC50 [1] is on record?
Its IC50 is 1.63 µg/mL (≈ 2.22 µM).

What about the IC90 [1] of the same compound?
Its IC90 is 2.49 µg/mL (≈ 3.39 µM).

What about the IC50 [2] of the same compound?
The IC50 was 0.19 µg/mL (≈ 0.259 µM).

What about the IC90 [2] of the same compound?
Its IC90 is 0.57 µg/mL (≈ 0.777 µM).

And the IC50 [3]?
Its IC50 is 2.5 µg/mL (≈ 3.41 µM).

And the IC90 [3]?
The IC90 was 5.4 µg/mL (≈ 7.36 µM).

And the IC50 [4]?
The IC50 was 1.83 µg/mL (≈ 2.49 µM).

And the IC90 [4]?
The IC90 was 5 µg/mL (≈ 6.81 µM).

What about the IC50 [5] of the same compound?
Its IC50 is 0.73 µg/mL (≈ 0.995 µM).

And the IC90 [5]?
The IC90 was 1.9 µg/mL (≈ 2.59 µM).

What about the IC50 [6] of the same compound?
Its IC50 is 3.9 µg/mL (≈ 5.31 µM).

What about the IC90 [6] of the same compound?
The IC90 was > 16 µg/mL.

And the IC50 [7]?
The IC50 was 2.5 µg/mL (≈ 3.41 µM).

And the IC90 [7]?
The IC90 was 8 µg/mL (≈ 10.9 µM).

What about the IC50 [8] of the same compound?
The IC50 was 0.9 µg/mL (≈ 1.23 µM).

What about the IC90 [8] of the same compound?
Its IC90 is 4.98 µg/mL (≈ 6.79 µM).

What about the IC50 [9] of the same compound?
The IC50 was 0.8 µg/mL (≈ 1.09 µM).

And the IC90 [9]?
Its IC90 is 2.3 µg/mL (≈ 3.13 µM).

What about the IC50 [10] of the same compound?
The IC50 was 0.02 µg/mL (≈ 0.0272 µM).

What about the IC90 [10] of the same compound?
The IC90 was 0.06 µg/mL (≈ 0.0817 µM).

What about the IC50 [11] of the same compound?
The IC50 was 0.8 µg/mL (≈ 1.09 µM).

What about the IC90 [11] of the same compound?
Its IC90 is 1.5 µg/mL (≈ 2.04 µM).

And the IC50 [12]?
The IC50 was 1.79 µg/mL (≈ 2.44 µM).

And the IC90 [12]?
Its IC90 is 6.83 µg/mL (≈ 9.31 µM).

What about the IC50 [13] of the same compound?
The IC50 was 1.29 µg/mL (≈ 1.76 µM).

What about the IC90 [13] of the same compound?
The IC90 was 7.23 µg/mL (≈ 9.85 µM).

And the IC50 [14]?
The IC50 was 2.31 µg/mL (≈ 3.15 µM).

What about the IC90 [14] of the same compound?
The IC90 was 8.26 µg/mL (≈ 11.3 µM).

What about the IC50 [15] of the same compound?
The IC50 was 2.92 µg/mL (≈ 3.98 µM).

What about the IC90 [15] of the same compound?
Its IC90 is 4.9 µg/mL (≈ 6.68 µM).

And the IC50 [16]?
The IC50 was 0.5 µg/mL (≈ 0.681 µM).

What about the IC90 [16] of the same compound?
Its IC90 is 2.68 µg/mL (≈ 3.65 µM).

And the IC50 [17]?
Its IC50 is 1.01 µg/mL (≈ 1.38 µM).

And the IC90 [17]?
Its IC90 is 2.3 µg/mL (≈ 3.13 µM).

And the IC50 [18]?
The IC50 was 0.54 µg/mL (≈ 0.736 µM).

What about the IC90 [18] of the same compound?
Its IC90 is 1.5 µg/mL (≈ 2.04 µM).

What about the IC50 [19] of the same compound?
Its IC50 is 0.31 µg/mL (≈ 0.422 µM).

And the IC90 [19]?
Its IC90 is 2.05 µg/mL (≈ 2.79 µM).

What about the IC50 [20] of the same compound?
Its IC50 is 0.58 µg/mL (≈ 0.79 µM).

What about the IC90 [20] of the same compound?
The IC90 was 3.79 µg/mL (≈ 5.16 µM).

And the “anti-Jurkat activity increase over tetrandrine” value ([20]; compared with tetrandrine)?
The value was ~4 fold.

For COc1ccc2cc1Oc1ccc(cc1)C[C@H]1c3cc(c(OC)cc3CCN1C)Oc1c(OC)c(OC)c(CN3CCCN(C)CC3)c3c1[C@H](C2)N(C)CC3 [BS-TE-356], which IC50 [1] is on record?
Its IC50 is 1.3 µg/mL (≈ 1.74 µM).

And the IC90 [1]?
Its IC90 is 1.67 µg/mL (≈ 2.23 µM).

And the IC50 [2]?
The IC50 was 1.11 µg/mL (≈ 1.48 µM).

What about the IC90 [2] of the same compound?
The IC90 was 2.02 µg/mL (≈ 2.7 µM).

And the IC50 [3]?
The IC50 was 0.94 µg/mL (≈ 1.26 µM).

And the IC90 [3]?
The IC90 was 2.59 µg/mL (≈ 3.46 µM).

And the IC50 [4]?
The IC50 was 1.55 µg/mL (≈ 2.07 µM).

What about the IC90 [4] of the same compound?
The IC90 was 5 µg/mL (≈ 6.68 µM).

What about the IC50 [5] of the same compound?
The IC50 was 0.51 µg/mL (≈ 0.681 µM).

What about the IC90 [5] of the same compound?
Its IC90 is 0.91 µg/mL (≈ 1.22 µM).

And the IC50 [6]?
The IC50 was 2.19 µg/mL (≈ 2.92 µM).

And the IC90 [6]?
The IC90 was 4 µg/mL (≈ 5.34 µM).

What about the IC50 [7] of the same compound?
Its IC50 is 3.5 µg/mL (≈ 4.67 µM).

What about the IC90 [7] of the same compound?
Its IC90 is 10.5 µg/mL (≈ 14 µM).

And the IC50 [8]?
Its IC50 is 1.26 µg/mL (≈ 1.68 µM).

And the IC90 [8]?
Its IC90 is 1.88 µg/mL (≈ 2.51 µM).

And the IC50 [9]?
Its IC50 is 1.63 µg/mL (≈ 2.18 µM).

What about the IC90 [9] of the same compound?
The IC90 was 3 µg/mL (≈ 4.01 µM).

What about the IC50 [10] of the same compound?
The IC50 was 0.11 µg/mL (≈ 0.147 µM).

And the IC90 [10]?
Its IC90 is 2.43 µg/mL (≈ 3.24 µM).

What about the IC50 [11] of the same compound?
The IC50 was 0.49 µg/mL (≈ 0.654 µM).

What about the IC90 [11] of the same compound?
Its IC90 is 0.62 µg/mL (≈ 0.828 µM).

And the IC50 [12]?
The IC50 was 3.37 µg/mL (≈ 4.5 µM).

What about the IC90 [12] of the same compound?
Its IC90 is 7.54 µg/mL (≈ 10.1 µM).

What about the IC50 [13] of the same compound?
Its IC50 is 1 µg/mL (≈ 1.34 µM).

What about the IC90 [13] of the same compound?
The IC90 was 9.26 µg/mL (≈ 12.4 µM).

And the IC50 [14]?
The IC50 was 1.62 µg/mL (≈ 2.16 µM).

And the IC90 [14]?
The IC90 was 4.58 µg/mL (≈ 6.12 µM).

And the IC50 [15]?
Its IC50 is 3.4 µg/mL (≈ 4.54 µM).

And the IC90 [15]?
The IC90 was 5 µg/mL (≈ 6.68 µM).

What about the IC50 [16] of the same compound?
Its IC50 is 1.24 µg/mL (≈ 1.66 µM).

What about the IC90 [16] of the same compound?
The IC90 was 3.2 µg/mL (≈ 4.27 µM).

And the IC50 [17]?
The IC50 was 1.54 µg/mL (≈ 2.06 µM).

What about the IC90 [17] of the same compound?
Its IC90 is 2.21 µg/mL (≈ 2.95 µM).

What about the IC50 [18] of the same compound?
Its IC50 is 0.63 µg/mL (≈ 0.841 µM).

What about the IC90 [18] of the same compound?
The IC90 was 2.17 µg/mL (≈ 2.9 µM).

What about the IC50 [19] of the same compound?
The IC50 was 0.79 µg/mL (≈ 1.05 µM).

And the IC90 [19]?
Its IC90 is 2.4 µg/mL (≈ 3.2 µM).

What about the IC50 [20] of the same compound?
Its IC50 is 1.41 µg/mL (≈ 1.88 µM).

What about the IC90 [20] of the same compound?
The IC90 was 5.41 µg/mL (≈ 7.22 µM).
